Laboratory results reported in patent publication US12655130B2 (ASSEMBLY BIOSCIENCES, INC., priority 2020, dated 2026).

test system: HBV viral load (viral production from HepAD38 cells); test: Activity of test compounds on viral production from HepAD38 cells (viral load by qPCR of HBV core sequence); type: cell-based; settings: Hepatitis B virus, HePAD38, 120 h, viral load lowering, 5 days, qPCR of supernatant, read-out: VL HepAD38 EC50 range
Method: Assay Measuring Activity of Test Compounds on Viral Production from HepAD38 Cells
HepAD38 cells grown in a T-150 flask (Corning, cat #: 430825) with Growth Medium (DMEM/F12 (1:1) (Hyclone, cat #: SH30023.02), 1× Pen/Strep (Invitrogen, cat #: 15140-122), 10% FBS (Tissue Culture Biologics, cat #: 101), 250 μg/mL G418 (Alfa Aesar, cat #: J62671), 1 μg/mL Tetracycline (Teknova, cat #: T3320)) were detached with 0.25% trypsin-EDTA (Invitrogen, cat #: 25200-056). Tetracycline-free treatment medium (15 mL DMEM/F12 (1:1) 1× Pen/step, with 2% FBS, Tet-system approved (Clontech, cat #: 631106) were then added to mix, transferred into a 50 ml conical tube (Falcon, cat #: 21008-918) and spun at 1300 rpm for 5 min. Pelleted cells were then re-suspended/washed with 50 mL of 1×DPBS (Invitrogen, cat #: 14190-136) 2 times and 50 mL treatment medium twice. HepAD38 cells were then re-suspended with 10 mL of treatment medium, syringed and counted. Wells of 96-well clear bottom TC plate (Corning, cat #: 3904) were seeded at 50,000 cells/well in 180 μL of treatment medium, and 20 μL of either 10% DMSO (Sigma, cat #: D4540) as controls or a 10× solution of test compounds in 10% DMSO in treatment media was added for a final compound concentration starting at 10 μM, and plates were incubated in 5% CO2 incubator at 37° C. for 5 days.
Subsequently viral load production was assayed by quantitative PCR (qPCR) of the HBV core sequence. PCR reaction mixture containing forward primers HBV-f 5′-CTGTGCCTTGGGTGGCITT-3′ (IDT DNA), Reverse primers HBV-r 5′-[…]-3′ (IDT DNA), Fluorescent TaqMan™ Probes HBV-probe 5′-FAM/AGCTCCAAA/ZENMITCTITATAAGGGTCGATGTC/3IABkFQ-3′ (IDT DNA), 10 μL/well of PerfeCTa® qPCR ToughMix® (Quanta Biosciences, Cat #: 95114-05K), and 6 μL/well of DEPC water (Alfa Aesar, cat #: J62087) was prepared. Four μL of supernatant was added to 16 μL of the reaction mixture in a qPCR plate (Applied Biosytems, Cat #: 4309849), sealed with a film (Applied Biosystems, Cat #: 4311971), centrifuged for a few seconds, and subsequently run on an Applied Biosystems VIIA7. The PCR mixture was incubated at 45° C. for 5 min, then 95° C. for 10 min, followed by 40 cycles of 10 seconds at 95° C. and 20 seconds at 60° C. Viral load was quantified against known HBV DNA standards by using ViiA™ 7 Software. Viral load in the supernatant from wells with treated cells were compared against viral load in supernatant from DMSO control wells (3 per plate). Cell viability assay was performed with CellTiter-Glo Luminescent Cell Viability Assay (Promega, cat #: G7573) with modification. Mixed appropriate amount of CellTiter-Glo (CTG) 1×DPBS in a 1:1 ratio, added 100 uL of the mixture to each well followed completely removal of all supernatant in each well without touching cell surface. Incubated the plate at room temperature for 10 min on an orbital shaker, and then read the plate with a plate reader (TECAN M1000 or Envision). EC50 or CC50 values were calculated through curve-fitting of the four-parameter nonlinear-logistic-regression model (GraphPad Prism or Dotmatics). CC50 values were all >10 μM.

SMILES | EC50 [nM]
Cn1cnc(C2CC3CC(O)(c4c[nH]nc4C(F)F)CC3C2)c1C(=O)Nc1ccc(F)c(Cl)c1 (centres unmarked) [Example 170, N-(3-Chloro-4-fluorophenyl)-4-(5-(3-(difluoromethyl)-1H-pyrazol-4-yl)-5-hydroxyoctahydropentalen-2-yl)-1-methyl-1H-imidazole-5-carboxamide] | < 10
CC(O)c1nn(C)cc1C1(O)CC2CC(c3ncn(C)c3C(=O)Nc3ccc(F)c(Cl)c3)CC2C1 (single isomer, unassigned) [Example 188, N-(3-Chloro-4-fluorophenyl)-4-(5-hydroxy-5-(3-(1-hydroxyethyl)-1-methyl-1H-pyrazol-4-yl)octahydropentalen-2-yl)-1-methyl-1H-imidazole-5-carboxamide] | < 10
Cn1cnc(C2CC3CC(O)(Cn4ccc(O)n4)CC3C2)c1C(=O)Nc1ccc(F)c(Cl)c1 (centres unmarked) [Example 95, N-(3-chloro-4-fluorophenyl)-4-(5-hydroxy-5-((3-hydroxy-1H-pyrazol-1-yl)methyl)octahydropentalen-2-yl)-1-methyl-1H-imidazole-5-carboxamide] | 10 to 50
CC(C)C(N)C(=O)Nc1cc(C2(O)CC3CC(c4ncn(C)c4C(=O)Nc4ccc(F)c(Cl)c4)CC3C2)n(C)n1 (centres unmarked) [Example 220, 4-(5-(3-(2-Amino-3-methylbutanamido)-1-methyl-1H-pyrazol-5-yl)-5-hydroxyoctahydropentalen-2-yl)-N-(3-chloro-4-fluorophenyl)-1-methyl-1H-imidazole-5-carboxamide] | < 10
Cn1cnc(C2CC3CC(O)(CO)CC3C2)c1C(=O)Nc1ccc(F)c(Cl)c1 (single isomer, unassigned) [Example 19, N-(3-Chloro-4-fluorophenyl)-4-(5-hydroxy-5-(hydroxymethyl)octahydro-pentalen-2-yl)-1-methyl-1H-imidazole-5-carboxamide] | < 10
O=C(Nc1ccc(F)c(Cl)c1)c1scnc1C1CC2CC(O)CC2C1 (centres unmarked) [Example 39, N-(3-Chloro-4-fluorophenyl)-4-(5-hydroxyoctahydropentalen-2-yl)thiazole-5-carboxamide] | < 10
Cn1cnc(C2CC3CC(O)(c4cc([N+](=O)[O-])nn4C)CC3C2)c1C(=O)Nc1ccc(F)c(Cl)c1 (single isomer, unassigned) [Example 50, N-(3-Chloro-4-fluorophenyl)-4-(5-hydroxy-5-(1-methyl-3-nitro-1H-pyrazol-5-yl)octahydropentalen-2-yl)-1-methyl-1H-imidazole-5-carboxamide] | < 10
Cn1cnc(C2CC3CC(O)(c4c(F)c(OCCO)nn4C)CC3C2)c1C(=O)Nc1ccc(F)c(Cl)c1 (centres unmarked) [Example 213, N-(3-Chloro-4-fluorophenyl)-4-(5-(4-fluoro-3-(2-hydroxyethoxy)-1-methyl-1H-pyrazol-5-yl)-5-hydroxyoctahydropentalen-2-yl)-1-methyl-1H-imidazole-5-carboxamide] | < 10
Cn1cnc(C2CC3CC(=O)CC3C2)c1C(=O)Nc1ccc(F)c(Cl)c1 (single isomer, unassigned) [Example 1, N-(3-Chloro-4-fluorophenyl)-1-methyl-4-(5-oxooctahydropentalen-2-yl)-1H-imidazole-5-carboxamide] | < 10
Cn1cnc(C2CC3CC(O)(c4cc(C(C)(C)O)nn4C)CC3C2)c1C(=O)Nc1ccc(F)c(C#N)c1 (centres unmarked) [Example 108, N-(3-Cyano-4-fluorophenyl)-4-(5-hydroxy-5-(3-(2-hydroxypropan-2-yl)-1-methyl-1H-pyrazol-5-yl)octahydropentalen-2-yl)-1-methyl-1H-imidazole-5-carboxamide] | < 10
Cn1cnc(C2CC3CC(O)(c4cc(OCC(O)CO)nn4C)CC3C2)c1C(=O)Nc1ccc(F)c(Cl)c1 (single isomer, unassigned) [Example 205, N-(3-Chloro-4-fluorophenyl)-4-(5-(3-(2,3-dihydroxypropoxy)-1-methyl-1H-pyrazol-5-yl)-5-hydroxyoctahydropentalen-2-yl)-1-methyl-1H-imidazole-5-carboxamide] | < 10
